Results: US20260139254A1, “INTERFERING RNA FOR INHIBITING TOP1 GENE EXPRESSION AND USE THEREOF” (JENKEM TECHNOLOGY CO., LTD. (BEIJING), priority 2022, published 2026)

Assays:
TOP1 mRNA = assay: Inhibitory effect of siTOP1 on TOP1 mRNA in A375 cells (Lipofectamine RNAiMAX transfection, Q-PCR); assay type: cell-based, human; details: A375, siRNA 50 nM, 48 h after transfection; for Relative expression level of gene, mean value: Blank = 100.00, GAPDH reference
Method: • 1) On the day before transfection, A375 melanoma cells were seeded into a 24-well plate at 6×10^4 to 8×10^4 cells/well, the culture medium being 500 μL of DMEM containing 10% FBS and 1% Penicillin-Streptomycin, and the plate was placed in an incubator with 5% CO2 at 37° C. for 24 h to allow the cells to adhere to the wall. Three replicate wells were made for each group. • 2) On the day of transfection, the culture medium was changed to 450 μL of DMEM culture medium without antibiotics (containing 10% FBS). • 3) The siRNAs were diluted with 25 μL of Opti-MEM culture medium; the siNC (the siNC (reference: O Sordet et al., 2008) having the target sequence of 5′-TTCTCCGAACGTGTCACGT-3′ (SEQ ID NO: 46)) at the same concentration was the negative control group; Lipofectamine™ RNAiMAX (Lipo) transfection reagent was diluted with another 25 μL of Opti-MEM culture medium and left to stand at room temperature for 5 min; and the two dilutions were uniformly mixed and left to stand at room temperature for 5 min. • 4) 50 μL of the mixed solution described above was added to each well to obtain a final transfection volume of 500 μL. and the working concentration of the siRNA was 50 nM. • 5) After the transfection, the cells were cultured for 48 h and then collected.
• 1) RNA was extracted using an Eastep™ Super total RNA extraction kit; 300 μL of RNA lysis solution and 300 μL of RNA diluent were added; and the mixture was uniformly mixed and then transferred to a 1.5 mL centrifuge tube. • 2) The mixture was centrifuged at 14000 g for 5 min, and the supernatant was carefully pipetted into a new 1.5 mL centrifuge tube. • 3) A 0.5-fold volume of absolute ethanol was added, and the mixture was uniformly mixed by allowing the tube to be repeatedly upside down 15-20 times. Subsequently, the mixture was transferred to a centrifuge column and centrifuged at 12000 g for 1 min. The filtrate was discarded. • 4) 600 μL of RNA wash buffer was added, and the mixture was centrifuged at 12000 g for 1 min. The filtrate was discarded. • 5) 50 μL of DNase I incubation buffer was added, followed by DNA digestion at room temperature for 15 min. • 6) 600 μL of RNA wash buffer was added, the mixture was centrifuged at 12000 g for 1 min, and the filtrate was discarded. This procedure was repeated once. • 7) The mixture was centrifuged at 14000 g for 2 min to remove the residual RNA wash buffer, and then the centrifuge column was placed in a collection tube. • 8) An appropriate amount of RNase-free H2O was added, and the mixture was left to stand at room temperature for 12 min and centrifuged at 14000 g for 1 min. The collected RNA was preserved at −70° C. for later use.
• 1) The mass and concentration of the RNA were detected using NanoDrop™, and an RNA template was prepared as follows: RNase-free H2O was added to 1 μg of RNA to a volume of 10 μL; the mixture was placed at 70° C. for 5 min and then placed in an ice bath for 5 min for later use. • 2) A reaction system was established according to Table 2:
• 3) The reaction system described above was uniformly mixed and centrifuged to collect the liquid at the bottom of a tube, and the mixture was subjected to the procedures of 25° C. for 5 min, 42° C. for 60 min, and 72° C. for 15 min, thereby giving the cDNA product. • 4) A Q-PCR system was prepared according to Table 3, and the level of TOP1 gene was detected:
GAPDH was used as an endogenous reference, and the sequences of the primers used for detection are as follows: […]

A375 melanoma cells = assay: Inhibition of A375 cell proliferation by siTOP1 (CCK-8); assay type: cell-based, human; details: A375, siRNA 50 nM, 72 h
Method: • 1) On the day before transfection, A375 melanoma cells were seeded into a 96-well plate at 2500-3000 cells/well, the culture medium being a total volume of 200 μL of DMEM culture medium containing 7.5% FBS and 1% Penicillin-Streptomycin, and the plate was placed in an incubator with 5% CO2 at 37° C. for 24 h to allow the cells to adhere to the wall. 5 replicate wells were made for each group. • 2) On the day of transfection, the culture medium was changed to 90 μL of reduced serum culture medium without antibiotics and containing 7.5% FBS. • 3) The siRNAs were diluted with an appropriate amount of Opti-MEM culture medium; Lipofectamine™ RNAiMAX (Lipo) transfection reagent was diluted with another appropriate amount of Opti-MEM culture medium and left to stand at room temperature for 5 min; and the two dilutions were uniformly mixed and left to stand at room temperature for 5 min. • 4) 10 μL of the mixed solution described above was added to each well to obtain a final transfection volume of 100 μL, and the working concentration of the siRNA was 50 nM. • 5) The cells were cultured in the incubator with 5% CO2 at 37° C. for 72 h.
After 72 h of transfection, 10 μL of CCK-8 solution was added to each well, and the cells were cultured in the incubator with 5% CO2 at 37° C. for another 4 h. The absorbance value at 450 nm was measured using a microplate reader. Cell viability was calculated according to the following formula: […]

Substance	Relative expression level of gene, mean value (TOP1 mRNA)	Cell viability (%), mean value (A375 melanoma cells) [%]	Inhibition of A375 cell proliferation compared to Blank (A375 melanoma cells)	Inhibition of TOP1 expression (TOP1 mRNA) [%]
siTOP1-267: siRNA targeting TOP1; target SEQ ID NO: 1, sense strand SEQ ID NO: 16, antisense strand SEQ ID NO: 31 (sense CAACGAUUCCCAGAUCGAAUU; antisense UUCGAUCUGGGAAUCGUUGUU; modified_base 20..21 OTHER; thymine)	21.85	58.27	about 42%	–
siTOP1-1282: siRNA targeting TOP1; target SEQ ID NO: 5, sense strand SEQ ID NO: 20, antisense strand SEQ ID NO: 35 (sense CACAAAGAGAGGAUUGCUAUU; antisense UAGCAAUCCUCUCUUUGUGUU; modified_base 20..21 OTHER; thymine)	6.64	–	–	93.4
siTOP1-628: siRNA targeting TOP1; target SEQ ID NO: 2, sense strand SEQ ID NO: 17, antisense strand SEQ ID NO: 32 (sense CCUCCUAAAGAGGAUAUAAUU; antisense UUAUAUCCUCUUUAGGAGGUU; modified_base 20..21 OTHER; thymine)	24.27	–	–	–
siTOP1-2273: siRNA targeting TOP1; target SEQ ID NO: 13, sense strand SEQ ID NO: 28, antisense strand SEQ ID NO: 43 (sense AGGAUGCAAAGACGAAGAAUU; antisense UUCUUCGUCUUUGCAUCCUUU; modified_base 20..21 OTHER; thymine)	12.54	–	–	–
siTOP1-1357: siRNA targeting TOP1; target SEQ ID NO: 6, sense strand SEQ ID NO: 21, antisense strand SEQ ID NO: 36 (sense GGCAUGCUGAAGAGACGAAUU; antisense UUCGUCUCUUCAGCAUGCCUU; modified_base 20..21 OTHER; thymine)	19.62	–	–	–
siTOP1-2898: siRNA targeting TOP1; target SEQ ID NO: 15, sense strand SEQ ID NO: 30, antisense strand SEQ ID NO: 45 (sense CGAUUAUAUUGGUGCGUUUUU; antisense AAACGCACCAAUAUAAUCGUU; modified_base 20..21 OTHER; thymine)	7.05	–	–	93.0
siTOP1-1261: siRNA targeting TOP1; target SEQ ID NO: 4, sense strand SEQ ID NO: 19, antisense strand SEQ ID NO: 34 (sense GGAUUCUGUAUUAUGGAUAUU; antisense UAUCCAUAAUACAGAAUCCUU; modified_base 20..21 OTHER; thymine)	17.75	–	–	–
siTOP1-896: siRNA targeting TOP1; target SEQ ID NO: 3, sense strand SEQ ID NO: 18, antisense strand SEQ ID NO: 33 (sense GGAAAUUCCUAGAACAUAAUU; antisense UUAUGUUCUAGGAAUUUCCUU; modified_base 20..21 OTHER; thymine)	13.05	–	–	–
siTOP1-1459: siRNA targeting TOP1; target SEQ ID NO: 7, sense strand SEQ ID NO: 22, antisense strand SEQ ID NO: 37 (sense CGGCAUGAUAACAAGGUUAUU; antisense UAACCUUGUUAUCAUGCCGUU; modified_base 20..21 OTHER; thymine)	9.89	–	–	90.1
siTOP1-1679: siRNA targeting TOP1; target SEQ ID NO: 11, sense strand SEQ ID NO: 26, antisense strand SEQ ID NO: 41 (sense CCCUGUACUUCAUCGACAAUU; antisense UUGUCGAUGAAGUACAGGGUU; modified_base 20..21 OTHER; thymine)	8.86	–	–	91.1
siTOP1-1630: siRNA targeting TOP1; target SEQ ID NO: 10, sense strand SEQ ID NO: 25, antisense strand SEQ ID NO: 40 (sense CGAGAAGACUGGAAGUCCAUU; antisense UGGACUUCCAGUCUUCUCGUU; modified_base 20..21 OTHER; thymine)	17.34	43.84	about 56%	–
siTOP1-2585: siRNA targeting TOP1; target SEQ ID NO: 14, sense strand SEQ ID NO: 29, antisense strand SEQ ID NO: 44 (sense GGUUUGGGAAAGAUGGAUAUU; antisense UAUCCAUCUUUCCCAAACCUU; modified_base 20..21 OTHER; thymine)	8.84	–	–	91.2
siTOP1-1530: siRNA targeting TOP1; target SEQ ID NO: 8, sense strand SEQ ID NO: 23, antisense strand SEQ ID NO: 38 (sense GCUUAACCCUAGUUCACGAUU; antisense UCGUGAACUAGGGUUAAGCUU; modified_base 20..21 OTHER; thymine)	9.44	–	–	90.6
siTOP1-1776: siRNA targeting TOP1; target SEQ ID NO: 12, sense strand SEQ ID NO: 27, antisense strand SEQ ID NO: 42 (sense GCACAUCAAUCUACACCCAUU; antisense UGGGUGUAGAUUGAUGUGCUU; modified_base 20..21 OTHER; thymine)	7.41	–	–	92.6
